Assays:
[1] = target: T1, human S1P1 (EDG1) receptor (Homo sapiens, UniProt P21453); assay: S1P1 β-arrestin recruitment (Tango) assay to determine EC50 values; assay type: cell-based; conditions: Tango-EDG1 bla U2OS cells, 16 h incubation
T1 construct: host or cells: U2OS (Tango EDG1-bla U2OS)
Source text: S1P1 β-Arrestin Recruitment (Tango) Assay to Determine EC50 Values
Upon ligand activation, G protein-coupled receptors (GPCR) trigger two pathways that independently transduce signals to the cell: one through heterotrimeric GTP-binding proteins (G proteins) and one through β-arrestins. Agonist-induced GPCRs recruit β-arrestin proteins, which then bind to the carboxy-terminal domain of ligand-activated GPCRs. The amount of β-arrestin recruitment can be used to assess the potency and efficacy of GPCR activating ligands.
To measure the potency and efficacy of compounds as S1P1 (EDG1) receptor agonists, Tango™-EDG1 bla U2OS cells (Invitrogen, USA, Catalog #K1520) are used. The Tango™ GPCR technology is based on GeneBLAzer β-lactamase reporter cell assays, which uses a mammalian-optimized β-lactamase reporter gene (bla) combined with a FRET-enabled substrate. The host cells, U2OS, stably express a human S1P1 (EDG1) receptor/transcription factor (TF) fusion protein. The cells also express a recombinant protease tagged β-arrestin protein, which is recruited to the S1P1 receptor upon ligand stimulation and specifically cleaves the S1P1-TF fusion protein. The released TF activates the β-lactamase (bla) reporter gene. To measure the reporter gene activity, cells are loaded with a fluorescent substrate containing two chemically coupled fluorophores, coumarin and fluorescein. […] In the presence of bla, the chemical bond is cleaved and FRET is inhibited. […] The amount of β-arrestin recruitment is proportional to the increase in blue fluorescence.
Tango™-EDG1 bla U2OS cells are cultivated in McCoy's 5A containing 10% dialyzed FBS, 0.1 mM NEAA, 25 mM HEPES, 1 mM sodium pyruvate, 1% Penicillin/Streptomycin, 200 μg/ml zeocin, 50 μg/ml hygromycin and 100 μg/ml geneticin (Invitrogen, USA). Cells are detached with trypsin, resuspended in medium and then counted.
Compounds (10 mM stock in DMSO) are diluted first in DMSO. The pre-diluted compounds solutions are then transferred into Assay Medium/0.1% fatty acid free BSA to reach a fourfold concentrated compound stock, which is applied to the cells to reach the final compound concentrations that range from 10 μM to 0.0005 nM (0.5% final DMSO). Cells are then incubated for 16 h at 37° C. and 5% CO2.

[2] = test system: circulating lymphocytes; assay: Assessment of in vivo efficacy: circulating lymphocytes after oral administration to Wistar rats; design: species or system rat; conditions: Rattus norvegicus, Lymphocyte; 6 h after oral administration of 10 mg/kg, normotensive male Wistar rats, compared to vehicle group; read-out: Lymphocyte counts
Procedure: Assessment of In Vivo Efficacy
The efficacy of the compounds of Formula (I) is assessed by measuring the circulating lymphocytes after oral administration of 3 to 30 mg/kg of a compound of Formula (I) to normotensive male Wistar rats. The animals are housed in climate-controlled conditions with a 12 h-light/dark cycle, and have free access to normal rat chow and drinking water. […] Full blood is subjected to hematology using Advia Hematology system (Bayer Diagnostics, Zurich, Switzerland).
All data are presented as mean±SEM. Statistical analyses are performed by analysis of variance (ANOVA) using Statistica (StatSoft) and the Student-Newman-Keuls procedure for multiple comparisons. The null hypothesis is rejected when p<0.05.

T1 sequence (P21453 whole entry): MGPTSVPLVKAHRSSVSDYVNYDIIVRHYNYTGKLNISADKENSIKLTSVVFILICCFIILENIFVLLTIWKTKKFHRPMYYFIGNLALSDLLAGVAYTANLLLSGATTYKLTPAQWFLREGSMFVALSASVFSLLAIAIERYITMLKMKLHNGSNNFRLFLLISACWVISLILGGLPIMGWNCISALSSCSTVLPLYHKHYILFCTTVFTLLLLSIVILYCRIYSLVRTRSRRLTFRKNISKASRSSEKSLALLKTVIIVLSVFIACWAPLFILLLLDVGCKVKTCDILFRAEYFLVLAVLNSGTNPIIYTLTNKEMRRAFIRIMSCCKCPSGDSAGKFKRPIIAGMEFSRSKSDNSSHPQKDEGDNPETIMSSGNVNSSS

Row | Compound | EC50 [1] [nM] | change in vivo at 10 mg/kg [2] [%]
1 | CCc1cc(-c2noc(-c3cc(OC)nc(C4CCCC4)c3)n2)cc(C)c1OCCN1CCC(C(=O)O)C1 (racemic) [Example 8, rac-1-(2-(4-(5-(2-Cyclopentyl-6-methoxypyridin-4-yl)-1,2,4-oxadiazol-3-yl)-2-ethyl-6-methylphenoxy)ethyl)pyrrolidine-3-carboxylic acid] | 0.3 | -66
2 | CCc1cc(-c2noc(-c3cc(OC)nc(C4CCCC4)c3)n2)cc(C)c1OCCNCC(O)CO (racemic) [Example 27, rac-3-((2-(4-(5-(2-Cyclopentyl-6-methoxypyridin-4-yl)-1,2,4-oxadiazol-3-yl)-2-ethyl-6-methylphenoxy)ethyl)amino)propane-1,2-diol] | 10.3 | -42
3 | CCc1cc(-c2noc(-c3cc(OC)nc(C4CCCC4)c3)n2)cc(C)c1OCCCNCC(O)CO (racemic) [Example 28, rac-3-((3-(4-(5-(2-Cyclopentyl-6-methoxypyridin-4-yl)-1,2,4-oxadiazol-3-yl)-2-ethyl-6-methylphenoxy)propyl)amino)propane-1,2-diol] | 25.6 | 
4 | CCc1cc(-c2noc(-c3cc(OC)nc(C4CCCC4)c3)n2)cc(C)c1OC[C@@H](O)CNCC(=O)O [Example 9, (S)-2-((3-(4-(5-(2-Cyclopentyl-6-methoxypyridin-4-yl)-1,2,4-oxadiazol-3-yl)-2-ethyl-6-methylphenoxy)-2-hydroxypropyl)amino)acetic acid] | 0.07 | -72
5 | CCc1cc(-c2noc(-c3cc(OC)nc(C4CCCC4)c3)n2)cc(C)c1OC[C@@H](O)CNCCC(=O)O [Example 10] | 0.06 | -51
6 | CCc1cc(-c2noc(-c3cc(OC)nc(C4CCCC4)c3)n2)cc(C)c1OC[C@@H](O)CN(C)CC(=O)O [Example 11, (S)-2-((3-(4-(5-(2-Cyclopentyl-6-methoxypyridin-4-yl)-1,2,4-oxadiazol-3-yl)-2-ethyl-6-methylphenoxy)-2-hydroxypropyl)(methyl)amino)acetic acid] | 0.2 | -60
7 | CCc1cc(-c2noc(-c3cc(OC)nc(C4CCCC4)c3)n2)cc(C)c1OC[C@@H](O)CN1CC(C(=O)O)C1 [Example 12, (S)-1-(3-(4-(5-(2-Cyclopentyl-6-methoxypyridin-4-yl)-1,2,4-oxadiazol-3-yl)-2-ethyl-6-methylphenoxy)-2-hydroxypropyl)azetidine-3-carboxylic acid] | 0.3 | -61
8 | CCc1cc(-c2noc(-c3cc(OC)nc(C4CCCC4)c3)n2)cc(C)c1OC[C@@H](O)CNC(=O)CC(=O)O [Example 14] | 0.03 | 
9 | CCc1cc(-c2noc(-c3cc(OC)nc(C4CCCC4)c3)n2)cc(C)c1OC[C@@H](O)CNC(=O)CCC(=O)O [Example 15, (S)-4-((3-(4-(5-(2-Cyclopentyl-6-methoxypyridin-4-yl)-1,2,4-oxadiazol-3-yl)-2-ethyl-6-methylphenoxy)-2-hydroxypropyl)amino)-4-oxobutanoic acid] | 0.02 | -55
10 | CCc1cc(-c2noc(-c3cc(OC)nc(C4CCCC4)c3)n2)cc(C)c1OCCN(C)CCC(=O)O [Example 17, 3-((2-(4-(5-(2-Cyclopentyl-6-methoxypyridin-4-yl)-1,2,4-oxadiazol-3-yl)-2-ethyl-6-methylphenoxy)ethyl)(methyl)amino)propanoic acid] | 0.2 | 
11 | CCc1cc(-c2noc(-c3cc(OC)nc(C4CCCC4)c3)n2)cc(C)c1OCCCNCCC(=O)O [Example 19, 3-((3-(4-(5-(2-Cyclopentyl-6-methoxypyridin-4-yl)-1,2,4-oxadiazol-3-yl)-2-ethyl-6-methylphenoxy)propyl)amino)propanoic acid] | 0.4 | 
12 | CCc1cc(-c2noc(-c3cc(OC)nc(C4CCCC4)c3)n2)cc(C)c1OCCCN1CC(C(=O)O)C1 [Example 22, 1-(3-(4-(5-(2-Cyclopentyl-6-methoxypyridin-4-yl)-1,2,4-oxadiazol-3-yl)-2-ethyl-6-methylphenoxy)propyl)azetidine-3-carboxylic acid] | 2.95 | 
13 | CCc1cc(-c2noc(-c3cc(OC)nc(C4CCCC4)c3)n2)cc(C)c1OCCNCCO [Example 23, 2-((2-(4-(5-(2-Cyclopentyl-6-methoxypyridin-4-yl)-1,2,4-oxadiazol-3-yl)-2-ethyl-6-methylphenoxy)ethyl)amino)ethanol] | 24.7 | 
14 | CCc1cc(-c2noc(-c3cc(OC)nc(C4CCCC4)c3)n2)cc(C)c1OCCCNCCO [Example 24, 2-((3-(4-(5-(2-Cyclopentyl-6-methoxypyridin-4-yl)-1,2,4-oxadiazol-3-yl)-2-ethyl-6-methylphenoxy)propyl)amino)ethanol] | 69 | 
15 | CCc1cc(-c2noc(-c3cc(OC)nc(C4CCCC4)c3)n2)cc(C)c1OCCNC(CO)CO [Example 25, 2-((2-(4-(5-(2-Cyclopentyl-6-methoxypyridin-4-yl)-1,2,4-oxadiazol-3-yl)-2-ethyl-6-methylphenoxy)ethyl)amino)propane-1,3-diol] | 4.23 | 
16 | CCc1cc(-c2noc(-c3cc(OC)nc(C4CCCC4)c3)n2)cc(C)c1OCCCNC(CO)CO [Example 26, 2-((3-(4-(5-(2-Cyclopentyl-6-methoxypyridin-4-yl)-1,2,4-oxadiazol-3-yl)-2-ethyl-6-methylphenoxy)propyl)amino)propane-1,3-diol] | 15.1 | 
17 | COc1cc(-c2nc(-c3cc(Cl)c(OCCCNC(=O)CO)c(OC)c3)no2)cc(C2CCCC2)n1 [Example 38, N-(3-(2-Chloro-4-(5-(2-cyclopentyl-6-methoxypyridin-4-yl)-1,2,4-oxadiazol-3-yl)-6-methoxyphenoxy)propyl)-2-hydroxyacetamide] | 0.893 | 
18 | CCc1cc(-c2noc(-c3cc(OC)nc(C4CCCC4)c3)n2)cc(C)c1OCCCC(=O)NCCO [Example 46, 4-(4-(5-(2-Cyclopentyl-6-methoxypyridin-4-yl)-1,2,4-oxadiazol-3-yl)-2-ethyl-6-methylphenoxy)-N-(2-hydroxyethyl)butanamide] | 1.8 | 
19 | CCc1cc(-c2nc(-c3cc(OC)nc(C4CCCC4)c3)no2)cc(C)c1OCCN(C)CC(=O)O [Example 56, 2-((2-(4-(3-(2-Cyclopentyl-6-methoxypyridin-4-yl)-1,2,4-oxadiazol-5-yl)-2-ethyl-6-methylphenoxy)ethyl)(methyl)amino)acetic acid] | 0.1 | 
20 | CCc1cc(-c2nc(-c3cc(OC)nc(C4CCCC4)c3)no2)cc(C)c1OCCN1CC(C(=O)O)C1 [Example 58, 1-(2-(4-(3-(2-Cyclopentyl-6-methoxypyridin-4-yl)-1,2,4-oxadiazol-5-yl)-2-ethyl-6-methylphenoxy)ethyl)azetidine-3-carboxylic acid] | 0.2 | 
21 | CCc1cc(-c2nnc(-c3cc(OC)nc(C4CCCC4)c3)o2)cc(C)c1OC[C@@H](O)CNCCO [Example 64, (S)-1-(4-(5-(2-Cyclopentyl-6-methoxypyridin-4-yl)-1,3,4-oxadiazol-2-yl)-2-ethyl-6-methylphenoxy)-3-((2-hydroxyethyl)amino)propan-2-ol] | 3 | 
22 | CCc1cc(-c2nnc(-c3cc(OC)nc(C4CCCC4)c3)o2)cc(C)c1OC[C@@H](O)CNC(CO)CO [Example 65] | 0.7 | 
23 | CCc1cc(-c2nnc(-c3cc(OC)nc(C4CCCC4)c3)o2)cc(C)c1OC[C@@H](O)CNC(=O)CCC(=O)O [Example 66] | 0.05 | 

— patent US9133179B2, “2-methoxy-pyridin-4-yl-derivatives” (Actelion Pharmaceuticals Ltd., priority 2011, dated 2015)
